Columns and labels:
293T cells = test: Cytotoxicity test (CCK-8 cell viability) in 293T cells; type: cell-based, human
Summary of the method: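 293T cells plated 24 h, then exposed to serial compound concentrations for 24 h (six replicates). Viability by CCK-8 ([…], OD 450 nm), blank-subtracted and expressed as percent of vehicle control; IC50 calculated from these values.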

HDAC4 = target: T1, HDAC4 (Mus musculus, UniProt Q6NZM9); test: HDAC4 protein level in barrel cortex by Western blot; type: in vivo; conditions: mice barrel cortex
T1 construct: Cortical tissue from mice was prepared according to protocol above then was homogenized and lysed for protein extraction; from tissue; host or cells: barrel cortex of C57BL/6J mice

APP/PS1 mice = test: Barrel cortex TC potency and GABA/AMPA ratio in Alzheimer's model mice; type: in vivo, mouse
Protocol: All electrophysiological experiments were conducted at 27 to 29° C. For electrophysiological experiments, electrodes with […] resistance were used and stimuli were applied to the ventral posteromedial nucleus (VPM) using a concentric bipolar electrode (FHC, Bowdoin, ME). The somatosensory cortex was identified by the presence of barrels under 4×magnification and differential interference contrast (DIC) optics, and by the ability to evoke short and constant latency field excitatory postsynaptic potentials (fEPSPs) by VPM stimulation. […]
For the minimal stimulation protocol (Potency), VB thalamic stimulation intensity was adjusted to find the lowest intensity that elicited a mixture of synaptic responses and failures. Failure rate was calculated as the number of failures/total number of trials. Potency was calculated as the mean EPSC peak amplitude excluding failures (see Chittajallu & Isaac, 2010, Emergence of cortical inhibition by coordinated sensory-driven plasticity at distinct synaptic loci, DOI: 10.1038/nn.2639; see Isaac et al., 1997, Silent Synapses during Development of Thalamocortical Inputs, https://doi.org/10.1016/S08966273 (00) 80267-6; and see Stevens & Wang, 1995, Facilitation and depression at single central synapses, DOI: 10.1016/08966273 (95) 90223-6). […]

T1 sequence (Q6NZM9 whole entry): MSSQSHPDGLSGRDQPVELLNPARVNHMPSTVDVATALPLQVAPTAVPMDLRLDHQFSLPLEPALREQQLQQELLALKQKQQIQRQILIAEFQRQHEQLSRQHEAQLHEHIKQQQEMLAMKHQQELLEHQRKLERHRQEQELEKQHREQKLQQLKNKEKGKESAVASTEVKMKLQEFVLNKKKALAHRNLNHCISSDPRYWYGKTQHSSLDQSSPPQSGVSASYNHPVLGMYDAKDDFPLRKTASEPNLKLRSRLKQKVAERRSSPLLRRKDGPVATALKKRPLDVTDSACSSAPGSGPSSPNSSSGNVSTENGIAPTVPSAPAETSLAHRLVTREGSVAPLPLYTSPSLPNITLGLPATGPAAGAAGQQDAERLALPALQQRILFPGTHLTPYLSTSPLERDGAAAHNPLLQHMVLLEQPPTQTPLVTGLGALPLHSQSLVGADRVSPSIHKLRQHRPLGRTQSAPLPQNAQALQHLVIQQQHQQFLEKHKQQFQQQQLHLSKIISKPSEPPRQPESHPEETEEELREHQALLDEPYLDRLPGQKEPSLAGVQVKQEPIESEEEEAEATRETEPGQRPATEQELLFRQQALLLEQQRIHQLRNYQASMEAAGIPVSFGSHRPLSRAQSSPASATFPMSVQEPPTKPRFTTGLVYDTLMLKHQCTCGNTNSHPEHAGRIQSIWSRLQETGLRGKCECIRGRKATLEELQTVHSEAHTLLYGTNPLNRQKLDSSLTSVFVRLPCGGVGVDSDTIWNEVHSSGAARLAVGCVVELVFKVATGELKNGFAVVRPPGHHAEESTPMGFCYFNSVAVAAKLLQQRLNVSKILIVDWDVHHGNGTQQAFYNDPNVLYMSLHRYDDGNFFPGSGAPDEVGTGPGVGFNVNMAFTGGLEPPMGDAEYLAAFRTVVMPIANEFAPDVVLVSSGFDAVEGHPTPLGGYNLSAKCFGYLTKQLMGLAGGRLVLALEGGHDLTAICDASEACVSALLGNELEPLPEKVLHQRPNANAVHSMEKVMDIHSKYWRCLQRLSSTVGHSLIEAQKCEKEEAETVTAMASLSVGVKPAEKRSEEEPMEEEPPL

SMILES: C[C@H]1CC[C@@H](C(=O)O)CN1C(=O)Cc1ccc(-c2cncnc2)cc1 [BnH12003, (3R,6S)-6-methyl-1-(2-(4-(pyrimidin-5-yl)phenyl)acetyl) piperidine-3-carboxylic acid]
- Cell viability test results (CCK) 10 uM (293T cells; 293T cell line, 10 uM): 99%<
- Cell viability test results (CCK) 100 uM (293T cells; 293T cell line, 100 uM): 90%<
- cell viability (293T cells; 293T, 0, 0.1, 1, 10, 100 μM, 24 hours, CCK-8): no significant change in cell viability
- HDAC4 protein expression (HDAC4; intraperitoneal administration): significantly suppressed
- HDAC4 protein expression (HDAC4; oral administration): significantly suppressed
- duration of the inhibitory effect on HDAC4 protein expression (HDAC4; oral and intraperitoneal administration): ≥ 10 days
- GABA/AMPA ratio (balance of excitation/inhibition) (APP/PS1 mice; barrel cortex layer 4, Os pump 3 μM): maintaining the balance of excitation/inhibition
- excitatory TC synaptic potential (TC potency) (APP/PS1 mice; barrel cortex layer 4, Os pump, BnH12003 3 μM, solanezumab 200 μg): increased the excitatory TC synaptic potential

From US20250213560A1, “NITROGEN-CONTAINING HETEROCYCLIC COMPOUNDS HAVING PHENYL GROUP AND USES THEREOF” (BNH RESEARCH CO., LTD., priority 2022, published 2025)
